This note sets out measurements from ChEMBL document CHEMBL4765259, “Synthesis and biological evaluation of novel shikonin-benzo[b]furan derivatives as tubulin polymerization inhibitors targeting the colchicine binding site” (Eur J Med Chem, 2020).

Data set [1] relates to HT-29. Kind of data set: Induction of microtubule disruption in human HT-29 cells at 0.5 uM incubated for 24 hrs by DAPI staining based confocal fluorescence microscopic analysis. The data set is classed as cell-based.
Data set [2] relates to HT-29. Nature of the data set: Induction of apoptosis in human HT-29 cells assessed as late apoptotic cells at […] measured after 24 hrs by Annexin V-FITC/propidium iodide staining based flow cytometry (reference value: 0.0 %). The conditions noted are these: dose 0.25 µM. The data set is classed as functional. A general note: Flow cytometry measures light scatter and fluorescence of single cells or particles in a stream.

Data set [3] concerns HT-29. Kind of data set: Induction of apoptosis in human HT-29 cells assessed as early apoptotic cells at 0.5 uM measured after 24 hrs by Annexin V-FITC/propidium iodide staining based flow cytometry (reference value: 1.6 %). The data set is classed as functional.
For data set [4], the system named is HT-29. Kind of data set: Cell cycle arrest in human HT29 cells assessed as cell accumulation at S phase at 0.5 uM incubated for 24 hrs by propidium iodide staining based flow cytometry (reference value: […] %). Type of data set: functional.
Data set [5] concerns MCF7. Nature of the data set: cells. The conditions noted are these: Homo sapiens, MCF7, 48 h.
Description: Antiproliferative activity against drug-resistant human MCF7 cells incubated for 48 hrs by MTT assay
In data set [6] the test system is HT-29. Kind of data set: Induction of apoptosis in human HT-29 cells assessed as viable cells at 0.5 uM measured after 24 hrs by Annexin V-FITC/propidium iodide staining based flow cytometry (reference value: 98.3 %). The data set is classed as functional. The conditions noted are these: read-out: Activity.
In a further data set the test system is MDA-MB-231. Nature of the data set: cells. The note with it: Homo sapiens, MDA-MB-231, 48 h.
The test system of data set [7] is HT-29. Kind of data set: Induction of apoptosis in human HT-29 cells assessed as early apoptotic cells at 1 uM measured after 24 hrs by Annexin V-FITC/propidium iodide staining based flow cytometry (reference value: 1.6 %). Type of data set: functional.
For data set [8], the system named is HT-29. Nature of the data set: Induction of apoptosis in human HT-29 cells assessed as late apoptotic cells at 0.5 uM measured after 24 hrs by Annexin V-FITC/propidium iodide staining based flow cytometry (reference value: 0.0 %). Type of data set: functional.
Data set [9] has as its system HT-29. Kind of data set: Cell cycle arrest in human HT29 cells assessed as cell accumulation at S phase at 1 uM incubated for 24 hrs by propidium iodide staining based flow cytometry (reference value: […] %). The data set is classed as functional.
Data set [10] concerns HT-29. Kind of data set: Antiproliferative activity against human HT29 cells incubated for 48 hrs by MTT assay. The data set is classed as functional, cell-based. The note with it: HT-29, 48 h.
Data set [11] relates to HT-29. Nature of the data set: Induction of apoptosis in human HT-29 cells assessed as necrotic cells at 0.5 uM measured after 24 hrs by Annexin V-FITC/propidium iodide staining based flow cytometry (reference value: 0.1 %). Type of data set: functional.
Data set [12] can be described thus: Antiproliferative activity against human LO2 cells incubated for 48 hrs by MTT assay. Type of data set: cell-based, L02.
In data set [13] the test system is K562. Kind of data set: Antiproliferative activity against drug resistant human K562 cells incubated for 48 hrs by MTT assay. The conditions noted are these: K562, 48 h. Type of data set: functional, cell-based. On the technique in general: Formazan colour is commonly taken as a measure of viable cells.
In data set [14] the test system is HT-29. Kind of data set: Cell cycle arrest in human HT29 cells assessed as cell accumulation at S phase at […] incubated for 24 hrs by propidium iodide staining based flow cytometry (reference value: […] %). Type of data set: functional. The note with it: dose 0.25 µM.
Data set [15] can be described thus: Antiproliferative activity against human HEK293T cells incubated for 48 hrs by MTT assay. The data set is classed as cell-based, HEK-293T.
Data set [16] concerns HT-29. Kind of data set: Induction of apoptosis in human HT-29 cells assessed as early apoptotic cells at […] measured after 24 hrs by Annexin V-FITC/propidium iodide staining based flow cytometry (reference value: 1.6 %). Type of data set: functional. The conditions noted are these: dose 0.25 µM.
Data set [17] concerns MCF7. Nature of the data set: cells. The conditions noted are these: Homo sapiens, MCF7, 48 h. The source holds these as a separate data set.
In another data set the test system is A549. Nature of the data set: cells. The conditions noted are these: Homo sapiens, A549, 48 h.
For data set [18], the system named is HT-29. Kind of data set: Cell cycle arrest in human HT29 cells assessed as cell accumulation at G1 phase at […] incubated for 24 hrs by propidium iodide staining based flow cytometry (reference value: 69.19 %). Type of data set: functional. The conditions noted are these: dose 0.25 µM.
Data set [19] concerns HT-29. Kind of data set: Cell cycle arrest in human HT29 cells assessed as cell accumulation at G1 phase at 1 uM incubated for 24 hrs by propidium iodide staining based flow cytometry (reference value: 69.19 %). Type of data set: functional.
Data set [20] has as its system HT-29. Nature of the data set: Induction of apoptosis in human HT-29 cells assessed as necrotic cells at […] measured after 24 hrs by Annexin V-FITC/propidium iodide staining based flow cytometry (reference value: 0.1 %). Type of data set: functional. The note with it: dose 0.25 µM.
Data set [21] concerns HT-29. Kind of data set: Induction of apoptosis in human HT-29 cells assessed as viable cells at 1 uM measured after 24 hrs by Annexin V-FITC/propidium iodide staining based flow cytometry (reference value: 98.3 %). Type of data set: functional. The conditions noted are these: read-out: Activity.
Data set [22] deals with HT-29. Kind of data set: Induction of apoptosis in human HT-29 cells assessed as viable cells at […] measured after 24 hrs by Annexin V-FITC/propidium iodide staining based flow cytometry (reference value: 98.3 %). The conditions noted are these: dose 0.25 µM, read-out: Activity. The data set is classed as functional.
For data set [23], the system named is HT-29. Nature of the data set: Cell cycle arrest in human HT29 cells assessed as cell accumulation at G2 phase at 1 uM incubated for 24 hrs by propidium iodide staining based flow cytometry (reference value: […]). Type of data set: functional.
Data set [24] can be described thus: Inhibition of tubulin polymerization (unknown origin) measured every 2 mins for 60 mins by spectrophotometric method. More on the design: species or system Homo sapiens.
The subject of a further data set is HCT-116. Nature of the data set: cells. The conditions noted are these: Homo sapiens, HCT-116, 48 h.
For data set [25], the system named is HT-29. Nature of the data set: Cell cycle arrest in human HT29 cells assessed as cell accumulation at G2 phase at 0.5 uM incubated for 24 hrs by propidium iodide staining based flow cytometry (reference value: […]). The data set is classed as functional.
The subject of another data set is HepG2. Kind of data set: Antiproliferative activity against human HepG2 cells incubated for 48 hrs by MTT assay. Type of data set: functional, cell-based. The conditions noted are these: HepG2, 48 h.
Data set [26] deals with HT-29. Kind of data set: Induction of apoptosis in human HT-29 cells assessed as necrotic cells at 1 uM measured after 24 hrs by Annexin V-FITC/propidium iodide staining based flow cytometry (reference value: 0.1 %). The data set is classed as functional.
Data set [27] has as its system HT-29. Kind of data set: Cell cycle arrest in human HT29 cells assessed as cell accumulation at G1 phase at 0.5 uM incubated for 24 hrs by propidium iodide staining based flow cytometry (reference value: 69.19 %). Type of data set: functional.
The subject of data set [28] is HT-29. Nature of the data set: Induction of apoptosis in human HT-29 cells assessed as late apoptotic cells at 1 uM measured after 24 hrs by Annexin V-FITC/propidium iodide staining based flow cytometry (reference value: 0.0 %). Type of data set: functional.
The subject of data set [29] is HT-29. Nature of the data set: Cell cycle arrest in human HT29 cells assessed as cell accumulation at G2 phase at […] incubated for 24 hrs by propidium iodide staining based flow cytometry (reference value: […]). The data set is classed as functional. The note with it: dose 0.25 µM.
Data set [30] has as its system K562. Nature of the data set: cells. The conditions noted are these: Homo sapiens, K562, 48 h.
Description: Antiproliferative activity against human K562 cells incubated for 48 hrs by MTT assay

Activity calls are given as the source filed them. The calls are words filed in the database; no cut-off is given here.

Description for HCT-116: Antiproliferative activity against human HCT116 cells incubated for 48 hrs by MTT assay

With `CC(=O)O[C@H]1C(=O)[C@@]2(C)[C@H]([C@H](OC(=O)c3ccccc3)[C@]3(O)C[C@H](OC(=O)[C@H](O)[C@@H](NC(=O)c4ccccc4)c4ccccc4)C(C)=C1C3(C)C)[C@]1(OC(C)=O)CO[C@@H]1C[C@@H]2O`, the result with HT-29 [1] was inactive.
What is called IC50 is the concentration at which inhibition is half-maximal. Low values mean inhibition by little substance, high ones a need for much substance. As a reminder, the CC50 is the concentration at which the toxic effect on the cells reaches its halfway point. A higher CC50 goes with lower toxicity to the cells. In the case of `COc1cc2c(c(OC)c1OC)-c1ccc(OC)c(=O)cc1[C@@H](NC(C)=O)CC2` [COLCHICINE], the Activity stood at 5.2% in the data set with HT-29 [2]; 12.1% in the data set with HT-29 [3]; 54.64% with HT-29 [4]; 15.8% in the data set with HT-29 [7]; 10.5% with HT-29 [8]; 35.66% in the data set with HT-29 [9]. The Activity in the data set with HT-29 [11] is listed as 1.3%; in the data set on HT-29 [14], 24.65%; in the data set with HT-29 [16], 7.6%; in the data set with HT-29 [18], 57.62%; with HT-29 [19], 23.93%; in the data set on HT-29 [20] it was 0.3%. For the same molecule, the Activity in the data set on HT-29 [23] is reported as 40.41%; in the data set with HT-29 [25], 18.25%; in the data set on HT-29 [26] it was 0.4%; in the data set with HT-29 [27] it was 27.11%; with HT-29 [28], 16.8%; with HT-29 [29] it was 17.73%. The half-maximal inhibitory concentration (IC50) with MCF7 [5] is 0.52 µM; in the data set on MDA-MB-231, 2.94 µM; in the data set on HT-29 [10], 1.81 µM; in the data set with K562 [13], 6.59 µM; in the data set with MCF7 [17] it was 0.11 µM; with A549 it was 1.17 µM. Also, the half-maximal inhibitory concentration (IC50) in data set [24] came to 2.11 µM; with HCT-116, 2.13 µM; in the data set on HepG2 it was 1.47 µM; in the data set on K562 [30] it was 0.44 µM. Further, the viability at 0.5 µM with HT-29 [6] came out at 76.1%. Besides, the CC50 at 48 h in [12] was 9.18 µM; in [15], 8.43 µM. In addition, the viability at 1 µM with HT-29 [21] came out at 67.1%. The viability at […] in the data set on HT-29 [22] was determined as 87%. The outcome in the data set on HT-29 [1] was Active.
